Data reported in patent US10118935B2, “Melampomagnolide B dimers” (priority 2014, dated 2018).
Read-outs that look alike come from different tables or passages of the source.

Experiments:
[1] = tested on: SK-MEL-2
[2] = tested on: SF-268
[3] = tested on: RPMI-8226
[4] = tested on: A498
[5] = tested on: HT29
[6] = tested on: SNB-75
[7] = tested on: HCT-116
[8] = tested on: NCI-H23
[9] = tested on: K-562
[10] = tested on: M14
[11] = tested on: UO-31
[12] = tested on: RXF 393
[13] = tested on: CAKI-1
[14] = tested on: NCI-H522
[15] = tested on: U251
[16] = tested on: SF-539
[17] = tested on: COLO 205
[18] = tested on: MOLT-4
[19] = tested on: SR
[20] = tested on: MALME-3M
[21] = tested on: NCI-H226
[22] = tested on: UACC-257
[23] = tested on: HCC-2998
[24] = tested on: SF-295
[25] = tested on: NCI/ADR-RES
[26] = tested on: MDA-MB-468
[27] = tested on: OVCAR-5
[28] = tested on: NCI-H460
[29] = tested on: BT-549
[30] = tested on: SN12C
[31] = tested on: T-47D
[32] = tested on: PC-3
[33] = tested on: EKVX; test: NCI 60 cell line five dose, Non-Small Cell Lung Cancer; assay type: cell-based, human; settings: for CC50: read-out: LC50 (the source's name)

Structure (SMILES) | CC50 [1] [µM] | CC50 [2] [µM] | CC50 [3] [µM] | CC50 [4] [µM] | CC50 [5] [µM] | CC50 [6] [µM] | CC50 [7] [µM] | CC50 [8] [µM] | CC50 [9] [µM] | CC50 [10] [µM] | CC50 [11] [µM] | CC50 [12] [µM] | CC50 [13] [µM] | CC50 [14] [µM] | CC50 [15] [µM] | CC50 [16] [µM] | CC50 [17] [µM] | CC50 [18] [µM] | CC50 [19] [µM] | CC50 [20] [µM] | also measured
C=C1C(=O)O[C@H]2[C@H]1CC/C(COC(=O)CCC(=O)NCCCCCCCCNC(=O)CCC(=O)OC/C1=C/CC[C@@]3(C)O[C@H]3[C@H]3OC(=O)C(=C)[C@@H]3CC1)=C\CC[C@@]1(C)O[C@@H]21 [JVM 2-87, bis(((1aR,7aS,10aS,10bS,E)-1a-Methyl-8-methylene-9-oxo-1a,2,3,6,7,7a,8,9,10a,1b-decahydrooxireno[2′,3′:9,10]cyclodeca[1,2-b]furan-5-yl)methyl)4,4′-(octane-1,8-diylbis(azanediyl))bis(4-oxobutanoate)] | 9.38 | 42.4 | > 100 | 49.6 | 5.92 | 26.9 | 5.41 | 42.6 | > 100 | 8.02 | 54 | 7.27 | 80.3 | 6.36 | 43 | 20.9 | 7.28 | > 100 | > 100 | 8 | CC50 [21]: 15.7 µM; CC50 [22]: 16 µM; CC50 [23]: 63.6 µM; CC50 [24]: 56.8 µM; CC50 [25]: > 100 µM; CC50 [26]: 21.3 µM; CC50 [27]: 7.31 µM; CC50 [28]: 66.2 µM; CC50 [29]: 5.12 µM; CC50 [30]: 53.8 µM
C=C1C(=O)O[C@H]2[C@H]1CC/C(COC(=O)CCC(=O)NCCCCCCCCCNC(=O)CCC(=O)OC/C1=C/CC[C@@]3(C)O[C@H]3[C@H]3OC(=O)C(=C)[C@@H]3CC1)=C\CC[C@@]1(C)O[C@@H]21 [JVM 2-92, bis(((1aR,7aS,10aS,10bS,E)-1a-Methyl-8-methylene-9-oxo-1a,2,3,6,7,7a,8,9,10a,10b-decahydrooxireno[2′,3′:9,10]cyclodeca[1,2-b]furan-5-yl)methyl)4,4′-(nonane-1,9-diylbis(azanediyl))bis (4-oxobutanoate)] | 8.13 | 42.4 | > 100 | 31.3 | 5.69 | 15.6 | 4.97 | 18.5 | > 100 | 8.05 | 45.6 | 6.21 | 49.9 | 5.63 | 44.7 | 9.95 | 8.15 | > 100 | > 100 | 8.93 | CC50 [31]: > 100 µM; CC50 [21]: 8.6 µM; CC50 [22]: 32 µM; CC50 [32]: 29.6 µM; CC50 [23]: 9.82 µM; CC50 [24]: 52 µM; CC50 [25]: > 100 µM; CC50 [26]: 7.04 µM; CC50 [27]: 7.06 µM; CC50 [28]: 25.7 µM; CC50 [29]: 4.65 µM; CC50 [30]: 49.7 µM
C=C1C(=O)O[C@H]2[C@H]1CC/C(COC(=O)NCCCCNC(=O)OC/C1=C/CC[C@@]3(C)O[C@H]3[C@H]3OC(=O)C(=C)[C@@H]3CC1)=C\CC[C@@]1(C)O[C@@H]21 [JVM 3-54, bis(((1aR,7aS,10aS,10bS,E)-1a-Methyl-8-methylene-9-oxo-1a,2,3,6,7,7a,8,9,10a,10b-decahydrooxireno[2′,3′:9,10]cyclodeca[1,2-b]furan-5-yl)methyl)butane-1,4-diyldicarbamate] | – | – | – | – | – | – | – | – | – | – | – | – | – | – | – | – | – | – | – | – | GI50 [33]: 3.69 µM; TGI [33]: 1.35e-05 M; Percent Growth ([33]; Log10 Concentration −4.0): −98%; Percent Growth ([33]; Log10 Concentration −5.0): 15%; Percent Growth ([33]; Log10 Concentration −6.0): 96%; Percent Growth ([33]; Log10 Concentration −7.0): 92%; Percent Growth ([33]; Log10 Concentration −8.0): 97%; CC50 [33]: 37.3 µM
C=C1C(=O)O[C@H]2[C@H]1CC/C(COC(=O)NCCCCCCCCNC(=O)OC/C1=C/CC[C@@]3(C)O[C@H]3[C@H]3OC(=O)C(=C)[C@@H]3CC1)=C\CC[C@@]1(C)O[C@@H]21 [JVM 3-62, bis(((1aR,7aS, 10aS, 10bS, E)-1a-Methyl-8-methylene-9-oxo-1a,2,3,6,7,7a,8,9,10a,10b-decahydrooxireno[2′,3′:9,10]cyclodeca[1,2-b]furan-5-yl)methyl)octane-1,8-diyldicarbamate] | – | – | – | – | – | – | – | – | – | – | – | – | – | – | – | – | – | – | – | – | Percent Growth ([33]; Log10 Concentration −4.0): −98%; Percent Growth ([33]; Log10 Concentration −5.0): −99%; Percent Growth ([33]; Log10 Concentration −6.0): 62%; Percent Growth ([33]; Log10 Concentration −7.0): 90%; Percent Growth ([33]; Log10 Concentration −8.0): 91%; GI50 ([33]; molar): 1.19 µM; TGI ([33]; molar): 2.44E−6; CC50 ([33]; molar): 4.99 µM
